In patent EP4806435A1, “DIHYDROCHROMENE-DERIVATIVE-CONTAINING THERAPEUTIC AGENT FOR CANCER” (Sumitomo Pharma Co., Ltd., priority 2023, dated 2025):
Like-named read-outs stand apart in the source and are kept apart here.

Experiment: Phase 1 clinical trial: plasma pharmacokinetics
Format: in vivo, human
Details: for Tmax / half-life / Cmax / AUC / AUC(0-t): human, plasma, oral; for half-life: read-out: Effective T1/2 (converted)
Experimental: Summary statistics based on preliminary data were obtained for the pharmacokinetics of Compound 1 in patients receiving once-daily doses ranging from 20 mg to 240 mg (Table 5). The mean plasma concentration-time curves of Compound 1 in the once-daily dose groups ranging from 20 mg to 240 mg are shown in Figure 11. In this study, one cycle consists of 28 days, and Cycle 1 Day 1 refers to Day 1 of the first cycle. […] Accumulation was observed after repeated administration. […] Based on these accumulation ratios, the half-life of Compound 1 was estimated to be approximately 4 days. Based on the currently available data, plasma concentrations are considered to have reached steady state by Day 15.
Summary statistics based on preliminary data were obtained for the pharmacokinetics of Compound 1 in patients in the 20 mg QD, 40 mg QD, 80 mg QD, 120 mg QD, 180 mg QD, 240 mg QD, 360 mg QD, and 480 mg daily (240 mg BID) dose groups (Table 6). The mean plasma concentration-time curves of Compound 1 in the 20 mg QD to 480 mg daily (240 mg BID) dose groups are shown in Figure 12 (in Figure 12, Compound 1 is denoted as "DSP-0390"). In this study, one cycle consists of 28 days, and Cycle 1 Day 1 refers to Day 1 of the first cycle. […] The median Tmax ranged from 2 to 8 hours. Accumulation was observed after repeated administration, and assuming linearity based on the observed accumulation ratios, the estimated elimination half-life was considered to be on the order of several days (approximately 1 to 6 days) (data cut-off: March 2024).

[1] = repeated administration, 20 mg to 240 mg once daily, cut-off April 2023

CC1(C)Oc2cc(Cl)ccc2[C@@H]2OCC3(CCN(CCn4ccnc4)CC3)C[C@H]21 [Compound 1, (4'aR,10'bR)-8'-chloro-1-[2-(1H-imidazol-1-yl)ethyl]-5',5'-dimethyl-4'a,10'b-dihydro-2'H,4'H,5'H-spiro[piperidine-4,3'-pyrano[3,2-c][1]benzopyran] diphosphate]
Tmax (180 mg, Cycle 2 Day 1, 180 mg, QD, cut-off April 2023, read-out: Tmax (median)): 7 h
half-life (240 mg, 240 mg QD, cut-off March 2024): 45.6 h
half-life (240 mg, 480 mg (240 mg BID), cut-off March 2024): 16.8 h
Cmax (240 mg, Cycle 1, Day 1, 240 mg QD, cut-off March 2024, read-out: Cmax): 177 ng/mL
Tmax (240 mg, Cycle 1, Day 1, 240 mg QD, cut-off March 2024, read-out: Tmax [a] median value): 2 h
AUC (240 mg, Cycle 1, Day 1, 240 mg QD, tau = 24 hours, cut-off March 2024, read-out: AUCtau [b]): 1620 ng·h/mL
Cmax (240 mg, Cycle 1, Day 1, 480 mg (240 mg BID), cut-off March 2024, read-out: Cmax): 143 ng/mL
Tmax (240 mg, Cycle 1, Day 1, 480 mg (240 mg BID), cut-off March 2024, read-out: Tmax [a] median value): 4 h
AUC (240 mg, Cycle 1, Day 1, 480 mg (240 mg BID), n=1, tau = 12 hours, cut-off March 2024, read-out: AUCtau [b]): 1980 ng·h/mL
AUC(0-t) (240 mg, Cycle 1 Day 1, 240 mg, QD, cut-off April 2023, read-out: AUC0-24 (geometric mean)): 1480 ng·h/mL
AUC(0-t) (240 mg, Cycle 1 Day 1, 240 mg, QD, cut-off April 2023, read-out: AUC0-24 (mean)): 1510 ng·h/mL
AUC(0-t) (240 mg, Cycle 1 Day 1, 240 mg, QD, cut-off April 2023, read-out: AUC0-24 (median)): 1620 ng·h/mL
Cmax (240 mg, Cycle 1 Day 1, 240 mg, QD, cut-off April 2023, read-out: Cmax (geometric mean)): 145 ng/mL
Cmax (240 mg, Cycle 1 Day 1, 240 mg, QD, cut-off April 2023, read-out: Cmax (mean)): 153 ng/mL
Cmax (240 mg, Cycle 1 Day 1, 240 mg, QD, cut-off April 2023, read-out: Cmax (median)): 148 ng/mL
Tmax (240 mg, Cycle 1 Day 1, 240 mg, QD, cut-off April 2023, read-out: Tmax (mean)): 3 h
Tmax (240 mg, Cycle 1 Day 1, 240 mg, QD, cut-off April 2023, read-out: Tmax (median)): 2 h
Cmax (240 mg, Cycle 2, Day 1, 240 mg QD, cut-off March 2024, read-out: Cmax,ss): 316 ng/mL
Tmax (240 mg, Cycle 2, Day 1, 240 mg QD, cut-off March 2024, read-out: Tmax,ss [a] median value): 5 h
AUC (240 mg, Cycle 2, Day 1, 240 mg QD, tau = 24 hours, cut-off March 2024, read-out: AUCtau,ss [b]): 5330 ng·h/mL
Cmax (240 mg, Cycle 2, Day 1, 480 mg (240 mg BID), cut-off March 2024, read-out: Cmax,ss): 346 ng/mL
Tmax (240 mg, Cycle 2, Day 1, 480 mg (240 mg BID), cut-off March 2024, read-out: Tmax,ss [a] median value): 7 h
AUC (240 mg, Cycle 2, Day 1, 480 mg (240 mg BID), n=1, tau = 12 hours, cut-off March 2024, read-out: AUCtau,ss [b]): 3180 ng·h/mL
AUC(0-t) (240 mg, Cycle 2 Day 1, 240 mg, QD, N=1, cut-off April 2023, read-out: AUC0-24 (geometric mean)): 6670 ng·h/mL
AUC(0-t) (240 mg, Cycle 2 Day 1, 240 mg, QD, N=1, cut-off April 2023, read-out: AUC0-24 (mean)): 6670 ng·h/mL
AUC(0-t) (240 mg, Cycle 2 Day 1, 240 mg, QD, N=1, cut-off April 2023, read-out: AUC0-24 (median)): 6670 ng·h/mL
Cmax (240 mg, Cycle 2 Day 1, 240 mg, QD, cut-off April 2023, read-out: Cmax (geometric mean)): 359 ng/mL
Cmax (240 mg, Cycle 2 Day 1, 240 mg, QD, cut-off April 2023, read-out: Cmax (mean)): 360 ng/mL
Cmax (240 mg, Cycle 2 Day 1, 240 mg, QD, cut-off April 2023, read-out: Cmax (median)): 360 ng/mL
Tmax (240 mg, Cycle 2 Day 1, 240 mg, QD, cut-off April 2023, read-out: Tmax (mean)): 7 h
Tmax (240 mg, Cycle 2 Day 1, 240 mg, QD, cut-off April 2023, read-out: Tmax (median)): 7 h
half-life (360 mg, 360 mg QD, cut-off March 2024): 24 h
Cmax (360 mg, Cycle 1, Day 1, 360 mg QD, cut-off March 2024, read-out: Cmax): 359 ng/mL
Tmax (360 mg, Cycle 1, Day 1, 360 mg QD, cut-off March 2024, read-out: Tmax [a] median value): 4 h
AUC (360 mg, Cycle 1, Day 1, 360 mg QD, tau = 24 hours, cut-off March 2024, read-out: AUCtau [b]): 4110 ng·h/mL
Cmax (360 mg, Cycle 2, Day 1, 360 mg QD, cut-off March 2024, read-out: Cmax,ss): 489 ng/mL
Tmax (360 mg, Cycle 2, Day 1, 360 mg QD, cut-off March 2024, read-out: Tmax,ss [a] median value): 4 h
AUC (360 mg, Cycle 2, Day 1, 360 mg QD, tau = 24 hours, cut-off March 2024, read-out: AUCtau,ss [b]): 8490 ng·h/mL
AUC(0-t) (Cycle 1 Day 1, 20 mg to 240 mg once daily, cut-off April 2023, read-out: geometric mean of AUC0-24, range over all dose groups): 76 to 1480 ng·h/mL
Cmax (Cycle 1 Day 1, 20 mg to 240 mg once daily, cut-off April 2023, read-out: geometric mean of Cmax, range over all dose groups): 4 to 145 ng/mL
Tmax (Cycle 1 Day 1, 20 mg to 240 mg once daily, cut-off April 2023, read-out: median Tmax, range over all dose groups): 2 to 8 h
AUC(0-t) (Cycle 2 Day 1, 20 mg to 240 mg once daily, cut-off April 2023, read-out: geometric mean of AUC0-24, range over all dose groups): 556 to 6670 ng·h/mL
Cmax (Cycle 2 Day 1, 20 mg to 240 mg once daily, cut-off April 2023, read-out: geometric mean of Cmax, range over all dose groups): 27.7 to 359 ng/mL
Tmax (Cycle 2 Day 1, 20 mg to 240 mg once daily, cut-off April 2023, read-out: median Tmax, range over all dose groups): 2 to 7 h
plasma concentrations reached steady state (once-daily dosing, cut-off April 2023): ≤ 15 days
dose dependence of exposure (range of 20 mg to 360 mg QD): increased in a dose-dependent manner
mean accumulation ratio for AUC0-24, range over dose groups [1]: 3.9-8.6
mean accumulation ratio for Cmax, range over dose groups [1]: 2.6-6.2
